Experimental data taken from US11230579B2, “Method of treating BCL-2 over-expressing disorders using arts containing a BH3-like domain” (CARMEL-HAIFA UNIVERSITY ECONOMIC CORPORATION LTD., priority 2012, dated 2022).
“Also recorded” adds a separate entry of the source.

How the values were obtained:
Bcl-2 [1] = test system: Bcl-2
BT-549 and HeLa cells = assay: Cell fractionation: release of Bcl-2 and ARTS to the cytosol after STS; type: cell-based, human; conditions: 0.6 μM STS
Experimental: Cells were re-suspended in homogenization buffer [20 mM HEPES-KOH, pH 7.5, 10 mM KCl, 1.5 mM MgCl2, 1 mM sodium EDTA, 1 mM sodium EGTA and 1 mM DTT in the presence of 250 mM sucrose and protease inhibitors (Mini-Complete™, Roche)]. Cell homogenization was performed using a 26 G needle (Sterican® 0.45′25 mm, 26 G′1″, Gr.18, B. Braun #46507683) and 1 mL syringe (1 mL HSW NORMJECT®, Henke-Sass, Wolf GmbH #4010.200V0) using 20 strokes. Homogenates were centrifuged at 500×g for 5 min at 4° C., and the supernatant was centrifuged at 10000×g for 20 min to obtain mitochondria. The supernatant was considered as a cytosolic fraction.
Briefly, cells were harvested and centrifuged at 300×g for 10 min, washed in TBS 2.5 mM pH 7.5, and re-pelletted. Cells were permeabilized for 5 min on ice with cytosolic extraction buffer (250 mM sucrose, 70 mM KCl, 137 mM NaCl, 4.3 mM Na2HPO4, 1.4 mM KH2PO4 pH 7.2, 1× complete protease inhibitor cocktail, Roche) containing freshly prepared digitonin (200 μg/ml, D-5628, Sigma). Cytosolic fraction was isolated by collecting the supernatant after centrifugation at 1000×g for 5 min at 4° C. Cytosolic fraction was separated on a 12% acrylamide gel and transferred to nitrocellulose membranes.
It has been recently shown by some of the inventors that similarly to Bcl-2, ARTS resides at the MOM of living cells (Edison et al., 2012b). […]

Bcl-2 [2] = assay: In vivo ubiquitination assay of Bcl-2 in MEFs; type: cell-based, mouse; conditions: WT MEFs, transfected, MG132 for 6 h
Experimental: (§1) Cells were transiently transfected with different constructs as detailed herein and treated with MG132 (20 μM, Alexis) for 6 hours. The medium was aspirated and the cells were washed with 1×PBS at room temperature. The cells were scraped at room temperature in 100 μl of denaturation buffer (1% SDS, 140 mM NaCl, 50 mM Tris-HCl pH 7.4) containing protease inhibitor cocktail (Complete, Roche) and 10 mM NEM to preserve ubiquitine chains. The solution was transferred to 2 ml eppendorf tube. The cells were homogenized by passing through a 25-gauge needle (20 times), and boiled for 10 min after vigorous vortexing. An amount of 400 μl of renaturation buffer (2% TritonX-100, 140 mM NaCl, 50 mM Tris-HCl pH 7.4) containing protease inhibitor cocktail (Complete, Roche) and 10 mM NEM was added to the lysate. After 15 min of centrifugation (10,000 g, 4°), the supernatant was transferred into a clean eppendorf tube. The protein concentration was determined using BCA Protein Assay Kit (Pierce). Western blot analyses were performed following immunoprecipitation with particular antibody.
The possible in vivo ubiquitination of Bcl-2 occurring upon apoptotic induction was next tested in immortalized WT MEFs transiently transfected with Bcl-2, XIAP and ubiquitin and treated with 20 μM MG132 for 6 h. […]

Bcl-2 [3] = assay: In vivo ubiquitination assay of Bcl-2 in HeLa cells; type: cell-based, human; conditions: HeLa cells transfected with Bcl-2, XIAP and ubiquitin, 20 μM MG132 6 h
Experimental: as §1
More specifically, HeLa or ARTS KD HeLa cells were transiently transfected with Bcl-2, XIAP and ubiquitin and treated with 20 μM MG132 for 6 h. […] The cells were harvested and subjected to immunoprecipitation (IP) using anti-Bcl-2 antibodies, followed by immune-blotting (IB) with anti-Bcl-2 antibodies.

HeLa cells = assay: Immunofluorescence localization of Bcl-2 (mitochondria vs cytosol) after STS; type: cell-based, human
Experimental: To further determine the cellular localization of Bcl-2 under apoptotic and non-apoptotic conditions, Immunofluorescence assay was conducted.
Cells in which Bcl-2 is detected at mitochondria (co-localize with MitoTracker), or at the cytosol (showing diffused pattern of staining) were counted.

## CN[C@@H]1C[C@H]2O[C@@](C)([C@@H]1OC)n1c3ccccc3c3c4c(c5c6ccccc6n2c5c31)C(=O)NC4 [STS, staurosporine]
Bcl-2 [1]; HeLa cells, 60 and 180 minutes treatments with STS
  Bcl-2 levels: decrease in Bcl-2 levels
Bcl-2 [1]; different cell lines and mouse embryonic fibroblasts (MEFs), Western blot
  Bcl-2 levels upon induction of apoptosis: down regulated
BT-549 and HeLa cells
  time at which Bcl-2 and ARTS are found in the cytosol after apoptosis induction: 2 to 15 min
Bcl-2 [2]
  polyubiquitinated forms of Bcl-2 following apoptotic induction: accumulation of polyubiquitinated forms of Bcl-2; also recorded: accumulation of poly-ubiquitinated forms of Bcl-2; also recorded: poly-ubiquitinated forms of Bcl-2 detected
  time of appearance of Bcl-2 polyubiquitinated forms: ≤ 30 min
Bcl-2 [3]; 1.5 μM STS
  time at which poly-ubiquitinated forms of Bcl-2 are seen: ≤ 30 min
Bcl-2 [3]; 1.5 μM STS 0.5 h
  poly-ubiquitinated forms of Bcl-2 after induction of apoptosis: significant accumulation of poly-ubiquitinated forms of Bcl-2
HeLa cells; HeLa cells transfected with Bcl-2, 180 minutes of STS treatment
  cells exhibiting Bcl-2 in the cytosol: 94%
HeLa cells; HeLa cells transfected with Bcl-2, sixty minutes following STS treatment
  cells exhibiting Bcl-2 in their cytosol: 63%
